How the values were obtained:
[1] = Brain and CSF levels of inositols after one month ad libitum dosing (GC/MS), Example 2; type: in vivo, TgCRND8 mice; conditions: TgCRND8 mice, myo-cyclohexanehexyl ad libitum for one month
Method: Study drugs were administered either at 30 mg/kg by oral gavage, or ad libitum by dissolution in drinking water. For administration in drinking water, study drugs were dissolved at 10 mg/ml. The average amount of water taken from the bottle was 3 ml daily per animal. The average mouse weight was 33 g. […] Quantification of scyllo-cyclohexanehexyl and myo-inositol. Scyllo-cyclohexanehexyl and myo-cyclohexanehexyl levels in the brain and CSF were analyzed using gas chromatography/mass spectrometry. D-chiro-inositol was used as an internal control, as it is not present in these biological samples. Derivatization: To increase the volatility and thermal stability of these compounds and to allow for proper peak separation, these samples need to first be derivatized. The derivatization was adapted from a method presented previously (Shetty, H U, et al, 1995, Anal. Biochem. 224:279-85), where the hydroxyl groups of the cyclohexanehexyl were replaced with acetyl groups. […] Similarly, a 5-15 μl sample of CSF was mixed with 1 ml of methanol and allowed to stand at room temperature for 5 minutes. The resulting suspension was centrifuged (5 min, 5000×g) and the supernatant transferred to a glass tube (Teflon-lined cap). […] These samples were then evaporated to complete dryness (Speedvac; 60° C.). […] This mixture was flushed with dry nitrogen, securely capped and the tubes heated (80° C.; 30 min). Following derivatization, samples were cooled (RT) and the unreacted acetylating reagent evaporated using a steady stream of nitrogen gas. The derivatized products were re-dissolved (4 ml; hexane-ethyl acetate (80:20, v/v)) and washed with 1 ml of 5% sodium hydrogencarbonate solution. […] The residue was reconstituted in 100 μl; ethyl acetate. 1 μL of this was injected into the GC/MS system. A similar procedure was followed using stock concentrations of scyllo- and myo-cyclohexanehexols, which were then used to generate concentration curves (in this case the internal standard was derivatized separately and then added). GC/MS was performed using a Perkin Elmer TurboMass Autosystem XL, with a quadrupole mass spectrometer and electron ionization. Gas chromatography was performed using a 30 m×0.25 mm×0.25 μm ZB 5 (5% diphenyl/95% dimethylpolysiloxane) column, using the carrier gas Helium (1 ml/min). Samples were injected with the split set to 50 at 1 min and 0 at 5 min, the injector temperature was set at 300° C. and an initial oven temperature of 80° C. After a hold of 1 min, the temperature was ramped at 45° C./min to 187° C. and held there for 15 min. […] Sample peaks were analyzed using selected-ion monitoring, using m/z 168 for determining cyclohexanehexyl levels in the brain and CSF and m/z 373 for determining cyclohexanehexyl levels in plasma, as monitoring the larger ion reduced noise. […]

[2] = Orally administered tritiated-inositol uptake in plasma and brain (FIG. 16); type: in vivo
Method: FIG. 16. Bioavailability of scyllo- (solid line) and myo-inositol (dashed line) in plasma and brain, determined using orally administered tritiated-inositol uptake studies. […] Brain levels also rose rapidly and were maximal at 8 h and 32 h, respectively.

[3] = TgCRND8 (outbred C3H/C57B16 background), mouse, in vivo
TgCRND8 mice = conditions: despite in vitro efficacy

## O[C@H]1[C@H](O)[C@@H](O)[C@H](O)[C@@H](O)[C@H]1O [myo-inositol, reference compound]
[1]; p<0.001
  increase of myo-cyclohexanehexyl level in brain vs untreated: 20%
[1]; p=0.35
  levels of myo-cyclohexanehexyl in CSF vs untreated: did not show any significant changes
[2]
  time of maximal brain levels: 8 h
  time of peak plasma levels post administration: 2 h
[3]
  increase in brain myo inositol levels over untreated controls: 1.2 fold
TgCRND8 mice
  efficacy for the treatment of TgCRND8 mice: not shown to be effective

Reference: patent US20100113613A1, “CYCLOHEXANE POLYALCOHOL FORMULATION FOR TREATMENT OF DISORDERS OF PROTEIN AGGREGATION” (WARATAH PHARMACEUTICALS, priority 2006, published 2010)
